PubChem BioAssay (NCI)
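Test compounds were applied to cells in 96-well plates for 48 hours at 5 doses. GI50 marks 50% less growth. TGI marks complete inhibition of growth.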

Tests used:
Assay in all cases: DTP human tumour cell line panel, 48 h
[1] = system: HS 578T breast
[2] = system: SNB-75 CNS
[3] = system: OVCAR-8 ovarian
[4] = system: UO-31 renal
[5] = system: SNB-19 CNS
[6] = system: SK-MEL-28 melanoma
[7] = system: SK-MEL-5 melanoma
[8] = system: NCI-H522 lung
[9] = system: SF-268 CNS
[10] = system: KM12 colon
[11] = system: U251 CNS
[12] = system: SN12C renal
[13] = system: MALME-3M melanoma
[14] = system: RXF 393 renal
[15] = system: HCC-2998 colon
[16] = system: NCI/ADR-RES ovarian
[17] = system: MDA-MB-435
[18] = system: SR leukemia
[19] = system: RPMI-8226 leukemia
[20] = system: NCI-H23 lung
[21] = system: PC-3 prostate
[22] = system: SW-620 colon
[23] = system: HCT-116 colon
[24] = system: LOX IMVI melanoma
[25] = system: SF-539 CNS
[26] = system: DU-145 prostate
[27] = system: TK-10 renal
[28] = system: K-562 leukemia
[29] = system: OVCAR-4 ovarian
[30] = system: NCI-H226 lung
[31] = system: HL-60(TB) leukemia
[32] = system: A498 renal
[33] = system: HOP-62 NSCLC
[34] = system: SK-MEL-2 melanoma
[35] = system: NCI-H460 lung
[36] = system: OVCAR-5 ovarian
[37] = system: SK-OV-3 ovarian
[38] = system: OVCAR-3 ovarian
[39] = system: MCF7 breast
[40] = system: A549 NSCLC
[41] = system: UACC-62 melanoma
[42] = system: EKVX NSCLC
[43] = system: MDA-MB-231 breast
[44] = system: ACHN renal
[45] = system: HOP-92 NSCLC
[46] = system: T-47D breast
[47] = system: IGROV1 ovarian
[48] = system: HCT-15 colon
[49] = system: BT-549 breast
[50] = system: M14 melanoma
[51] = system: UACC-257 melanoma
[52] = system: SF-295 CNS
[53] = system: HT29 colon
[54] = system: MOLT-4 leukemia
[55] = system: 786-0 renal
[56] = system: CCRF-CEM leukemia
[57] = system: CAKI-1 renal
[58] = system: COLO 205 colon

Work on `CSc1ccc(SC2c3ccc(C)cc3Oc3nc(N)c(C#N)c(N)c32)cc1` (stereo not given) yielded a GI50 [1] of 2190 nM, a TGI [1] of 5530 nM and a GI50 [2] of 2200 nM. The TGI [2] was 7340 nM, the GI50 [3] was 1790 nM and the TGI [3] was 3180 nM. It also gave a GI50 [4] of 1200 nM, a TGI [4] of 2430 nM and a GI50 [5] of 1770 nM. The TGI [5] was 3160 nM, the GI50 [6] was 1830 nM and the TGI [6] was 3290 nM. It also gave a GI50 [7] of 1760 nM, a TGI [7] of 3150 nM and a GI50 [8] of 1700 nM. The TGI [8] was 3130 nM, the GI50 [9] was 1700 nM and the TGI [9] was 3330 nM. The GI50 [10] was 1960 nM, the TGI [10] was 3650 nM and the GI50 [11] was 1690 nM. The TGI [11] was 3050 nM, the GI50 [12] was 1590 nM and the TGI [12] was 2940 nM. For the same molecule, the GI50 [13] was 1540 nM, the TGI [13] was 3010 nM and the GI50 [14] was 1710 nM. The TGI [14] was 3120 nM, the GI50 [15] was 1780 nM and the TGI [15] was 3280 nM. The GI50 [16] was 2220 nM, the TGI [16] was 5460 nM and the GI50 [17] was 1770 nM. The TGI [17] was 3270 nM, the GI50 [18] was 2540 nM and the TGI [18] was 7650 nM. For the same molecule, the GI50 [19] was 2430 nM, the TGI [19] was 6960 nM and the GI50 [20] was 1690 nM. The TGI [20] was 3220 nM, the GI50 [21] was 1640 nM and the TGI [21] was 3220 nM. It also gave a GI50 [22] of 2030 nM, a TGI [22] of 4280 nM and a GI50 [23] of 1920 nM. The TGI [23] was 3650 nM, the GI50 [24] was 1510 nM and the TGI [24] was 2920 nM. It also gave a GI50 [25] of 1560 nM, a TGI [25] of 2980 nM and a GI50 [26] of 1850 nM. The TGI [26] was 3260 nM, the GI50 [27] was 1960 nM and the TGI [27] was 3370 nM. The GI50 [28] was 2960 nM, the TGI [28] was 9910 nM and the GI50 [29] was 1590 nM. The TGI [29] was 3010 nM, the GI50 [30] was 1810 nM and the TGI [30] was 3270 nM. It also gave a GI50 [31] of 2120 nM, a TGI [31] of 4420 nM and a GI50 [32] of 2050 nM. It also gave a TGI [32] of 3950 nM, a GI50 [33] of 1730 nM and a TGI [33] of 3220 nM. The GI50 [34] was 2110 nM, the TGI [34] was 4120 nM and the GI50 [35] was 2030 nM. For the same molecule, the TGI [35] was 4070 nM, the GI50 [36] was 1710 nM and the TGI [36] was 3240 nM. The GI50 [37] was 1830 nM, the TGI [37] was 3290 nM and the GI50 [38] was 1740 nM. It also gave a TGI [38] of 3130 nM, a GI50 [39] of 1840 nM and a TGI [39] of 4340 nM. It also gave a GI50 [40] of 1820 nM, a TGI [40] of 3680 nM and a GI50 [41] of 1610 nM. For the same molecule, the TGI [41] was 2970 nM, the GI50 [42] was 1600 nM and the TGI [42] was 2990 nM. For the same molecule, the GI50 [43] was 1600 nM, the TGI [43] was 3000 nM and the GI50 [44] was 1610 nM. It also gave a TGI [44] of 2960 nM, a GI50 [45] of 1900 nM and a TGI [45] of 3760 nM. For the same molecule, the GI50 [46] was 1900 nM, the TGI [46] was 4840 nM and the GI50 [47] was 1280 nM. For the same molecule, the TGI [47] was 3050 nM, the GI50 [48] was 1650 nM and the TGI [48] was 3180 nM. The GI50 [49] was 1530 nM, the TGI [49] was 2870 nM and the GI50 [50] was 1860 nM. For the same molecule, the TGI [50] was 3640 nM, the GI50 [51] was 1810 nM and the TGI [51] was 3240 nM. The GI50 [52] was 1580 nM, the TGI [52] was 2970 nM and the GI50 [53] was 2110 nM. The TGI [53] was 4370 nM, the GI50 [54] was 2390 nM and the TGI [54] was 6050 nM. For the same molecule, the GI50 [55] was 1680 nM and the TGI [55] was 3070 nM.
`COC(=O)[C@H](C)NC(=O)[C@@H](OC)[C@@H]1Cc2cc3cc(OC4CC(OC5CC(O)C(O)C(C)O5)C(O)C(C)O4)c(C)c(O)c3c(O)c2C(=O)[C@H]1OC1CC(OC2CC(OC3CC(C)(O)C(O)C(C)O3)C(O)C(C)O2)C(O)C(C)O1` (stereo not given in full) showed a GI50 [1] of 98.3 nM, a TGI [1] of 2170 nM and a GI50 [2] of 91.1 nM. For the same molecule, the TGI [2] was 774 nM, the GI50 [3] was 46.1 nM and the TGI [3] was greater than 50000 nM. For the same molecule, the GI50 [4] was 182 nM, the TGI [4] was 3090 nM and the GI50 [5] was 132 nM. The TGI [5] was greater than 50000 nM, the GI50 [6] was 30.9 nM and the TGI [6] was 351 nM. For the same molecule, the GI50 [7] was 35.8 nM, the TGI [7] was 355 nM and the GI50 [56] was 147 nM. It also gave a TGI [56] greater than 50000 nM, a GI50 [9] of 92 nM and a TGI [9] greater than 50000 nM. It also gave a GI50 [10] of 94.4 nM, a TGI [10] greater than 50000 nM and a GI50 [11] of 73 nM. The TGI [11] was greater than 50000 nM, the GI50 [12] was 101 nM and the TGI [12] was greater than 50000 nM. It also gave a GI50 [13] of 29.6 nM, a TGI [13] of 315 nM and a GI50 [15] of 160 nM. The TGI [15] was 2080 nM, the GI50 [16] was 12300 nM and the TGI [16] was greater than 50000 nM. It also gave a GI50 [17] of 75.5 nM, a TGI [17] of 905 nM and a GI50 [18] of 27.1 nM. It also gave a TGI [18] greater than 50000 nM, a GI50 [19] of 100 nM and a TGI [19] of 1890 nM. The GI50 [20] was 93.9 nM, the TGI [20] was greater than 50000 nM and the GI50 [21] was 184 nM. For the same molecule, the TGI [21] was greater than 50000 nM, the GI50 [22] was 116 nM and the TGI [22] was greater than 50000 nM. The GI50 [23] was 24.5 nM, the TGI [23] was greater than 50000 nM and the GI50 [24] was 30.8 nM. For the same molecule, the TGI [24] was greater than 50000 nM, the GI50 [25] was 47.8 nM and the TGI [25] was 2620 nM. For the same molecule, the GI50 [26] was 146 nM, the TGI [26] was greater than 50000 nM and the GI50 [27] was 336 nM. The TGI [27] was greater than 50000 nM, the GI50 [28] was 179 nM and the TGI [28] was greater than 50000 nM. For the same molecule, the GI50 [29] was 163 nM, the TGI [29] was 3430 nM and the GI50 [30] was 106 nM. The TGI [30] was 495 nM, the GI50 [31] was 894 nM and the TGI [31] was 10600 nM. The GI50 [33] was 77.4 nM, the TGI [33] was greater than 50000 nM and the GI50 [57] was 129 nM. It also gave a TGI [57] of 2020 nM, a GI50 [34] of 90.8 nM and a TGI [34] of 588 nM. It also gave a GI50 [35] of 34.4 nM, a TGI [35] greater than 50000 nM and a GI50 [36] of 158 nM. It also gave a TGI [36] greater than 50000 nM, a GI50 [37] of 359 nM and a TGI [37] greater than 50000 nM. The GI50 [38] was 118 nM, the TGI [38] was 7410 nM and the GI50 [39] was 23.6 nM. It also gave a TGI [39] greater than 50000 nM, a GI50 [40] of 195 nM and a TGI [40] greater than 50000 nM. The GI50 [41] was 41.7 nM, the TGI [41] was 171 nM and the GI50 [42] was 174 nM. For the same molecule, the TGI [42] was 35500 nM, the GI50 [43] was 247 nM and the TGI [43] was greater than 50000 nM. The GI50 [44] was 119 nM, the TGI [44] was 2230 nM and the GI50 [45] was 115 nM. For the same molecule, the TGI [45] was 7100 nM, the GI50 [46] was 143 nM and the TGI [46] was greater than 50000 nM. For the same molecule, the GI50 [47] was 50 nM, the TGI [47] was greater than 50000 nM and the GI50 [58] was 93.4 nM. For the same molecule, the TGI [58] was 1090 nM, the GI50 [48] was 410 nM and the TGI [48] was greater than 50000 nM. It also gave a GI50 [49] of 88.1 nM, a TGI [49] of 1200 nM and a GI50 [50] of 113 nM. For the same molecule, the TGI [50] was 1410 nM, the GI50 [51] was 52 nM and the TGI [51] was 846 nM. It also gave a GI50 [52] of 88.5 nM, a TGI [52] greater than 50000 nM and a GI50 [53] of 117 nM. It also gave a TGI [53] greater than 50000 nM, a GI50 [54] of 232 nM and a TGI [54] of 4130 nM. The GI50 [55] was 148 nM and the TGI [55] was 9160 nM.
